Results taken from ChEMBL document CHEMBL2440076, “New triarylpyrazoles as broad-spectrum anticancer agents: design, synthesis, and biological evaluation” (Eur J Med Chem, 2013).

Experiments:
[1] = test system: KM12; experiment: Growth inhibition of human KM12 cells assessed as cell growth at 10 uM after 48 hrs by sulforhodamine B assay; type: functional; details: KM12, 48 h, read-out: Activity
[2] = test system: MDA-MB-231; experiment: Growth inhibition of human MDA-MB-231 cells after 48 hrs by sulforhodamine B assay; type: functional; details: MDA-MB-231, 48 h
[3] = test system: T47D; experiment: Growth inhibition of human T47D cells after 48 hrs by sulforhodamine B assay; type: functional
[4] = test system: NCI-H23; experiment: Growth inhibition of human NCI-H23 cells after 48 hrs by sulforhodamine B assay; type: functional; details: NCI-H23, 48 h
[5] = test system: TK-10; experiment: Growth inhibition of human TK10 cells assessed as cell growth at 10 uM after 48 hrs by sulforhodamine B assay; type: functional; details: TK-10, 48 h, read-out: Activity
[6] = test system: BT-549; experiment: Growth inhibition of human BT549 cells assessed as cell growth at 10 uM after 48 hrs by sulforhodamine B assay; type: functional; details: BT-549, 48 h, read-out: Activity
[7] = test system: T47D; experiment: Growth inhibition of human T47D cells assessed as cell growth at 10 uM after 48 hrs by sulforhodamine B assay; type: functional; details: read-out: Activity
[8] = test system: OVCAR-4; experiment: Growth inhibition of human OVCAR4 cells assessed as cell growth at 10 uM after 48 hrs by sulforhodamine B assay; type: functional; details: OVCAR-4, 48 h, read-out: Activity
[9] = test system: SNB-19; experiment: Growth inhibition of human SNB19 cells after 48 hrs by sulforhodamine B assay; type: functional; details: SNB-19, 48 h
[10] = test system: HOP-62; experiment: Growth inhibition of human HOP62 cells assessed as cell growth at 10 uM after 48 hrs by sulforhodamine B assay; type: functional; details: HOP-62, 48 h, read-out: Activity
[11] = test system: SK-OV-3; experiment: Growth inhibition of human SKOV3 cells assessed as cell growth at 10 uM after 48 hrs by sulforhodamine B assay; type: functional; details: SK-OV-3, 48 h, read-out: Activity
[12] = test system: SK-MEL-28; experiment: Growth inhibition of human SK-MEL-28 cells after 48 hrs by sulforhodamine B assay; type: functional; details: SK-MEL-28, 48 h
[13] = test system: MDA-MB-468; experiment: Growth inhibition of human MDA-MB-468 cells assessed as cell growth at 10 uM after 48 hrs by sulforhodamine B assay; type: functional; details: MDA-MB-468, 48 h, read-out: Activity
[14] = test system: RPMI-8226; experiment: Growth inhibition of human RPMI8226 cells assessed as cell growth at 10 uM after 48 hrs by sulforhodamine B assay; type: functional; details: RPMI-8226, 48 h, read-out: Activity
[15] = test system: SN12C; experiment: Growth inhibition of human SN12C cells assessed as cell growth at 10 uM after 48 hrs by sulforhodamine B assay; type: functional; details: read-out: Activity
[16] = test system: HCT-15; experiment: Growth inhibition of human HCT15 cells assessed as cell growth at 10 uM after 48 hrs by sulforhodamine B assay; type: functional; details: HCT-15, 48 h, read-out: Activity
[17] = test system: PC-3; experiment: Growth inhibition of human PC3 cells assessed as cell growth at 10 uM after 48 hrs by sulforhodamine B assay; type: functional; details: PC-3, 48 h, read-out: Activity
[18] = Growth inhibition of human HCC2998 cells assessed as cell growth at 10 uM after 48 hrs by sulforhodamine B assay; type: functional; details: HCC 2998, 48 h, read-out: Activity
[19] = test system: SK-MEL-5; experiment: Growth inhibition of human SK-MEL-5 cells assessed as cell growth at 10 uM after 48 hrs by sulforhodamine B assay; type: functional; details: SK-MEL-5, 48 h, read-out: Activity
[20] = test system: MDA-MB-435; experiment: Growth inhibition of human MDA-MB-435 cells after 48 hrs by sulforhodamine B assay; type: functional, cell-based; details: MDA-MB-435, 48 h
[21] = Growth inhibition of human Hs 578T cells assessed as cell growth at 10 uM after 48 hrs by sulforhodamine B assay; type: functional; details: read-out: Activity
[22] = test system: BT-549; experiment: Growth inhibition of human BT549 cells after 48 hrs by sulforhodamine B assay; type: functional; details: BT-549, 48 h
[23] = test system: CAKI-1; experiment: Growth inhibition of human CAKI-1 cells after 48 hrs by sulforhodamine B assay; type: functional; details: CAKI-1, 48 h
[24] = test system: NCI-H460; experiment: Growth inhibition of human NCI-H460 cells assessed as cell growth at 10 uM after 48 hrs by sulforhodamine B assay; type: functional; details: NCI-H460, 48 h, read-out: Activity
[25] = test system: K562; experiment: Growth inhibition of human K562 cells after 48 hrs by sulforhodamine B assay; type: functional; details: K562, 48 h
[26] = test system: A549; experiment: Growth inhibition of human A549/ATCC cells assessed as cell growth at 10 uM after 48 hrs by sulforhodamine B assay; type: functional; details: A549, 48 h, read-out: Activity
[27] = test system: COLO 205; experiment: Growth inhibition of human COLO205 cells after 48 hrs by sulforhodamine B assay; type: functional; details: COLO 205, 48 h
[28] = test system: RXF 393; experiment: Growth inhibition of human RXF393 cells after 48 hrs by sulforhodamine B assay; type: functional; details: RXF 393, 48 h
[29] = test system: SK-MEL-2; experiment: Growth inhibition of human SK-MEL-2 cells after 48 hrs by sulforhodamine B assay; type: functional; details: SK-MEL-2, 48 h
[30] = test system: A498; experiment: Growth inhibition of human A498 cells assessed as cell growth at 10 uM after 48 hrs by sulforhodamine B assay; type: functional; details: A498, 48 h, read-out: Activity
[31] = test system: NCI-H522; experiment: Growth inhibition of human NCI-H522 cells assessed as cell growth at 10 uM after 48 hrs by sulforhodamine B assay; type: functional; details: NCI-H522, 48 h, read-out: Activity
[32] = test system: U-251; experiment: Growth inhibition of human U251 cells assessed as cell growth at 10 uM after 48 hrs by sulforhodamine B assay; type: functional; details: U-251, 48 h, read-out: Activity
[33] = test system: MOLT-4; experiment: Growth inhibition of human MOLT4 cells assessed as cell growth at 10 uM after 48 hrs by sulforhodamine B assay; type: functional; details: MOLT-4, 48 h, read-out: Activity
[34] = test system: HT-29; experiment: Growth inhibition of human HT-29 cells after 48 hrs by sulforhodamine B assay; type: functional; details: HT-29, 48 h
[35] = read-out: LC50 (the source's name)

For COc1cc(-c2nn(-c3cccc(NC(=O)c4ccccc4)c3)cc2-c2ccncc2)ccc1Cl, the growth at 10 µM [1] was 12.3%, the GI50 [2] was 1.17 µM and the LC50 [2] was over 100 µM. It also gave a TGI [2] of 13.7 µM, a GI50 [3] of 1.9 µM and a TGI [3] of over 100 µM. The CC50 [3, 35] was over 100 µM, the GI50 [4] was 2.02 µM and the LC50 [4] was over 100 µM. It also gave a TGI [4] of over 100 µM, a growth at 10 µM [5] of 31% and a growth at 10 µM [6] of 1.29%. The growth at 10 µM [7] was 21.8%, the growth at 10 µM [8] was 46.5% and the GI50 [9] was 0.86 µM. The LC50 (concentration killing 50% of cells) [9] was over 100 µM, the TGI [9] was over 100 µM and the growth at 10 µM [10] was 27.1%. The growth at 10 µM [11] was 42.1%, the GI50 [12] was 3.86 µM and the LC50 [12] was over 100 µM. It also gave a TGI [12] of over 100 µM, a growth at 10 µM [13] of -19.7% and a growth at 10 µM [14] of 9.39%. For the same compound, the growth at 10 µM [15] was 28.8%, the growth at 10 µM [16] was 19.2% and the growth at 10 µM [17] was 10.5%. The growth at 10 µM [18] was 20.1%, the growth at 10 µM [19] was -49.4% and the GI50 [20] was 0.189 µM. For the same compound, the IC50 [20] was 0.19 µM, the TGI [20] was 0.551 µM and the CC50 [20, 35] was 12.3 µM. It also gave a growth at 10 µM [21] of -1.34%, a GI50 [22] of 1.33 µM and an LC50 (50% lethal concentration) [22] of over 100 µM. It also gave a TGI [22] of over 100 µM, a GI50 [23] of 1.16 µM and a TGI [23] of over 100 µM. For the same compound, the CC50 [23, 35] was over 100 µM, the growth at 10 µM [24] was 2.74% and the GI50 [25] was 0.421 µM. For the same compound, the TGI [25] was over 100 µM, the CC50 [25, 35] was over 100 µM and the growth at 10 µM [26] was 4.81%. For the same compound, the GI50 [27] was 0.522 µM, the LC50 (concentration killing 50% of cells) [27] was 68.4 µM and the TGI [27] was 3.23 µM. For the same compound, the GI50 [28] was 0.646 µM, the LC50 (concentration killing 50% of cells) [28] was over 100 µM and the TGI [28] was 6.34 µM. For the same compound, the GI50 [29] was 0.389 µM, the LC50 (50% lethal concentration) [29] was over 100 µM and the TGI [29] was 4.97 µM. The growth at 10 µM [30] was -23.2%, the growth at 10 µM [31] was -29.6% and the growth at 10 µM [32] was 13.5%. It also gave a growth at 10 µM [33] of 0.66%, a GI50 [34] of 0.392 µM and a TGI [34] of over 100 µM. The CC50 [34, 35] was over 100 µM.

COc1cc(-c2nn(-c3cccc(NC(=O)c4ccc(Br)c(C)c4)c3)cc2-c2ccncc2)ccc1Cl gave a growth at 10 µM [1] of 82.7%, a growth at 10 µM [5] of 91.3% and a growth at 10 µM [6] of 91.4%. The growth at 10 µM [7] was 70.3%, the growth at 10 µM [8] was 86.2% and the growth at 10 µM [10] was 91.8%. For the same compound, the growth at 10 µM [11] was 90.8%, the growth at 10 µM [13] was 83.5% and the growth at 10 µM [14] was 64.7%. For the same compound, the growth at 10 µM [15] was 81%, the growth at 10 µM [16] was 67.8% and the growth at 10 µM [17] was 59.4%. The growth at 10 µM [18] was 88.2%, the growth at 10 µM [19] was 71% and the growth at 10 µM [21] was 74.9%. For the same compound, the growth at 10 µM [24] was 80.9%, the growth at 10 µM [26] was 78.3% and the growth at 10 µM [30] was 68%. For the same compound, the growth at 10 µM [31] was 45.1%, the growth at 10 µM [32] was 73.7% and the growth at 10 µM [33] was 68.7%.
